Reference: US9730940B2, “Purine inhibitors of human phosphatidylinositol 3-kinase delta” (priority 2012, dated 2017)

These compounds were tested against PI3K-alpha (Homo sapiens (Human), UniProt P42336) (assay: HTRF PI3K biochemical assay, alpha isoform). Settings: ratio PI3K-alpha IC50 value/PI3K-delta IC50 value.
Chain of PI3K-alpha (P42336 whole entry, looked up, canonical isoform): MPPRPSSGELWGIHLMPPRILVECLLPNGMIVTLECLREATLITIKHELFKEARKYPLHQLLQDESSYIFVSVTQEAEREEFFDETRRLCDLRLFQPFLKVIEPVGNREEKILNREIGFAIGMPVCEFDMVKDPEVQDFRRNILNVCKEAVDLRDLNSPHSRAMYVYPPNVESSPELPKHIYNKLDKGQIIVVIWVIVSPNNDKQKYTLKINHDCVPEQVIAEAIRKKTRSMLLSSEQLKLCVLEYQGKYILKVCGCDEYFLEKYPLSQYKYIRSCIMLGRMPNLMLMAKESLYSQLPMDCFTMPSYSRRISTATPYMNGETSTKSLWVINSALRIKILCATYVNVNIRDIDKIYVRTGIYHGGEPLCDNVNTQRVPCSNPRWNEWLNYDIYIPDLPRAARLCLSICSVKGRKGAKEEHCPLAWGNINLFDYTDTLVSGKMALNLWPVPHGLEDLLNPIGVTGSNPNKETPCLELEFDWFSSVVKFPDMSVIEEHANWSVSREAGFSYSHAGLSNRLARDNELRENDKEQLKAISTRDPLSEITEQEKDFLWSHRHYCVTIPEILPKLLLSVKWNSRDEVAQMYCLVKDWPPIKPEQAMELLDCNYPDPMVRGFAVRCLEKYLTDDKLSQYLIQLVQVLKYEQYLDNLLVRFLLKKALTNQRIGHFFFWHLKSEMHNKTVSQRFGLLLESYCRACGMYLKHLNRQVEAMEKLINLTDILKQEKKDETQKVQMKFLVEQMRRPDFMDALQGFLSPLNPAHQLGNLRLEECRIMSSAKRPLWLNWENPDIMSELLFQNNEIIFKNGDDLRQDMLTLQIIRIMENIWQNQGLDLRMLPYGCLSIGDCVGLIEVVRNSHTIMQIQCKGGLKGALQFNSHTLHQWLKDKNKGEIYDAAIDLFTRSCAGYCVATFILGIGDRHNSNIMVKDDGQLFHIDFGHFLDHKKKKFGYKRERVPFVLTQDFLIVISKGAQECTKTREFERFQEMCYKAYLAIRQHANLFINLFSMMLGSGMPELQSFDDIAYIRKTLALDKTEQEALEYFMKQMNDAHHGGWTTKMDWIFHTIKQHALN
Chain of PI3K-alpha (P27986 whole entry partner, looked up, canonical isoform): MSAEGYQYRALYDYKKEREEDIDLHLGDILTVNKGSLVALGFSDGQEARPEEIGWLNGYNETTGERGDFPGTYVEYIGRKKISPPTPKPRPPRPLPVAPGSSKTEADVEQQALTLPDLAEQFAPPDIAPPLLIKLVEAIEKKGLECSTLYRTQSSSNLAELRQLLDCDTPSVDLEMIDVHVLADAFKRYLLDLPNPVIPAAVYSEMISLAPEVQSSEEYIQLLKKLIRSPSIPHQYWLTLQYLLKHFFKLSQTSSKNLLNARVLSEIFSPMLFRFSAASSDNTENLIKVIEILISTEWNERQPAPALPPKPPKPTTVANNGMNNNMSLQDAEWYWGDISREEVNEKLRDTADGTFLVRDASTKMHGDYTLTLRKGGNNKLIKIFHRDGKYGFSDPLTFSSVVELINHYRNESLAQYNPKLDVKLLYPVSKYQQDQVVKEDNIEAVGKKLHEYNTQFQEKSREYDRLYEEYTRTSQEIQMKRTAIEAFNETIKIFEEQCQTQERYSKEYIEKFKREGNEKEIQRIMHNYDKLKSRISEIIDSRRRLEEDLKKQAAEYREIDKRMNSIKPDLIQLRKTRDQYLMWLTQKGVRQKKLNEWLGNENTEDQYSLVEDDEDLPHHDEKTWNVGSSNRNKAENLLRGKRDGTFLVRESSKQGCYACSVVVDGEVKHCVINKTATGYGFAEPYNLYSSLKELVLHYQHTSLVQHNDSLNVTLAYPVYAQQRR

Row | SMILES | Relative Selectivity versus PI3Kalpha
1 | CCC(=O)N1CCC(Oc2ncnc3c2nc(-c2cnn(CC)c2C)n3C)CC1 [Compound 2-14, 1-(4-((8-(1-ethyl-5-methyl-1H-pyrazol-4-yl)-9-methyl-9H-purin-6-yl)oxy)piperidin-1-yl)propan-1-one] | 1
2 | CCn1ncc(-c2nc3c(O[C@H]4CCN(C(=O)CC#N)C4)ncnc3n2C)c1C [Compound 2-15, 3-[(3S)-3-{[8-(1-ethyl-5-methyl-1H-pyrazol-4-yl)-9-methyl-9H-purin-6-yl]oxy}pyrrolidin-1-yl]-3-oxopropanenitrile] | >10
3 | CCn1ncc(-c2nc3c(O[C@H]4CCN(C(=O)C5CC5)C4)ncnc3n2C)c1C [Compound 2-16, 6-{[(3S)-1-(cyclopropylcarbonyl)pyrrolidin-3-yl]oxy}-8-(1-ethyl-5-methyl-1H-pyrazol-4-yl)-9-methyl-9H-purine] | >10
4 | CCn1ncc(-c2nc3c(O[C@H]4CCN(C(=O)C5CCCO5)C4)ncnc3n2C)c1C (stereo partly drawn) [Compound 2-17, 8-(1-ethyl-5-methyl-1H-pyrazol-4-yl)-9-methyl-6-{[(3S)-1-(tetrahydrofuran-2-ylcarbonyl)pyrrolidin-3-yl]oxy}-9H-purine] | >10
5 | CCn1ncc(-c2nc3c(O[C@H]4CCN(C(=O)c5ccc(N6CCN(C)CC6)cc5)C4)ncnc3n2C)c1C [Compound 2-21, 8-(1-ethyl-5-methyl-1H-pyrazol-4-yl)-9-methyl-6-{[(3S)-1-{[4-(4-methylpiperazin-1-yl)phenyl]carbonyl}pyrrolidin-3-yl]oxy}-9H-purine] | 1
6 | CCn1ncc(-c2nc3c(O[C@H]4CCN(C(=O)c5cccnc5)C4)ncnc3n2C)c1C [Compound 2-22, 8-(1-ethyl-5-methyl-1H-pyrazol-4-yl)-9-methyl-6-{[(3S)-1-(pyridin-3-ylcarbonyl)pyrrolidin-3-yl]oxy}-9H-purine] | >10
7 | CCn1ncc(-c2nc3c(O[C@H]4CCN(C(=O)C5CCOC(C)(C)C5)C4)ncnc3n2C)c1C (stereo partly drawn) [Compound 2-24, 6-({(3S)-1-[(2,2-dimethyltetrahydro-2H-pyran-4-yl)carbonyl]pyrrolidin-3-yl}oxy)-8-(1-ethyl-5-methyl-1H-pyrazol-4-yl)-9-methyl-9H-purine] | >10
8 | CCC(=O)N1CC[C@H](Oc2ncnc3c2nc(-c2cnc(C)nc2)n3CC)C1 [Compound 2-25, 9-ethyl-8-(2-methylpyrimidin-5-yl)-6-{[(3S)-1-propanoylpyrrolidin-3-yl]oxy}-9H-purine] | >10
9 | CCn1c(-c2cnc(C)nc2)nc2c(O[C@H]3CCN(C(=O)C4CCOCC4)C3)ncnc21 [Compound 2-26, 9-ethyl-8-(2-methylpyrimidin-5-yl)-6-{[(3S)-1-(tetrahydro-2H-pyran-4-ylcarbonyl)pyrrolidin-3-yl]oxy}-9H-purine] | >10
10 | CCn1ncc(-c2nc3c(O[C@H]4CCN(C(=O)c5coc(C)n5)C4)ncnc3n2C)c1C [Compound 2-27, 8-(1-ethyl-5-methyl-1H-pyrazol-4-yl)-9-methyl-6-({(3S)-1-[(2-methyl-1,3-oxazol-4-yl)carbonyl]pyrrolidin-3-yl}oxy)-9H-purine] | >10
11 | CCn1ncc(-c2nc3c(O[C@H]4CCN(C(=O)c5nc(C)oc5C)C4)ncnc3n2C)c1C [Compound 2-28, 6-({(3S)-1-[(2,5-dimethyl-1,3-oxazol-4-yl)carbonyl]pyrrolidin-3-yl}oxy)-8-(1-ethyl-5-methyl-1H-pyrazol-4-yl)-9-methyl-9H-purine] | >10
12 | CCn1ncc(-c2nc3c(O[C@H]4CCN(C(=O)c5cnon5)C4)ncnc3n2C)c1C [Compound 2-29, 8-(1-ethyl-5-methyl-1H-pyrazol-4-yl)-9-methyl-6-{[(3S)-1-(1,2,5-oxadiazol-3-ylcarbonyl)pyrrolidin-3-yl]oxy}-9H-purine] | 1
13 | CCn1ncc(-c2nc3c(O[C@H]4CCN(C(=O)c5cnn(C(C)C)c5)C4)ncnc3n2C)c1C [Compound 2-31, 8-(1-ethyl-5-methyl-1H-pyrazol-4-yl)-9-methyl-6-{[(3S)-1-{[1-(1-methylethyl)-1H-pyrazol-4-yl]carbonyl}pyrrolidin-3-yl]oxy}-9H-purine] | 5
14 | CCn1ncc(-c2nc3c(O[C@H]4CCN(C(=O)c5ccno5)C4)ncnc3n2C)c1C [Compound 2-32, 8-(1-ethyl-5-methyl-1H-pyrazol-4-yl)-6-{[(3S)-1-(isoxazol-5-ylcarbonyl)pyrrolidin-3-yl]oxy}-9-methyl-9H-purine] | >10
15 | CCn1ncc(-c2nc3c(O[C@H]4CCN(C(=O)c5ccn[nH]5)C4)ncnc3n2C)c1C [Compound 2-33, 8-(1-ethyl-5-methyl-1H-pyrazol-4-yl)-9-methyl-6-{[(3S)-1-(1H-pyrazol-5-ylcarbonyl)pyrrolidin-3-yl]oxy}-9H-purine] | >10
16 | CCn1ncc(-c2nc3c(O[C@H]4CCN(C(=O)c5nonc5C)C4)ncnc3n2C)c1C [Compound 2-35, 8-(1-ethyl-5-methyl-1H-pyrazol-4-yl)-9-methyl-6-({(3S)-1-[(4-methyl-1,2,5-oxadiazol-3-yl)carbonyl]pyrrolidin-3-yl}oxy)-9H-purine] | >10
17 | CCn1ncc(-c2nc3c(O[C@H]4CCN(C(=O)c5ccnn5C)C4)ncnc3n2C)c1C [Compound 2-36, 8-(1-ethyl-5-methyl-1H-pyrazol-4-yl)-9-methyl-6-({(3S)-1-[(1-methyl-1H-pyrazol-5-yl)carbonyl]pyrrolidin-3-yl}oxy)-9H-purine] | >10
18 | CCn1ncc(-c2nc3c(O[C@H]4CCN(C(=O)c5ccn(C)n5)C4)ncnc3n2C)c1C [Compound 2-37, 8-(1-ethyl-5-methyl-1H-pyrazol-4-yl)-9-methyl-6-({(3S)-1-[(1-methyl-1H-pyrazol-3-yl)carbonyl]pyrrolidin-3-yl}oxy)-9H-purine] | >10
19 | CCn1ncc(-c2nc3c(O[C@H]4CCN(C(=O)c5cc(C)nn5C)C4)ncnc3n2C)c1C [Compound 2-38, 6-({(3S)-1-[(1,3-dimethyl-1H-pyrazol-5-yl)carbonyl]pyrrolidin-3-yl}oxy)-8-(1-ethyl-5-methyl-1H-pyrazol-4-yl)-9-methyl-9H-purine] | 7
20 | CCn1ncc(-c2nc3c(O[C@H]4CCN(C(=O)c5nccn5C)C4)ncnc3n2C)c1C [Compound 2-39, 8-(1-ethyl-5-methyl-1H-pyrazol-4-yl)-9-methyl-6-({(3S)-1-[(1-methyl-1H-imidazol-2-yl)carbonyl]pyrrolidin-3-yl}oxy)-9H-purine] | >10
21 | CCn1ncc(-c2nc3c(O[C@H]4CCN(C(=O)c5c[nH]nn5)C4)ncnc3n2C)c1C [Compound 2-40, 8-(1-ethyl-5-methyl-1H-pyrazol-4-yl)-9-methyl-6-{[(3S)-1-(1H-1,2,3-triazol-4-ylcarbonyl)pyrrolidin-3-yl]oxy}-9H-purine] | 2
22 | CCn1ncc(-c2nc3c(O[C@H]4CCN(C(=O)c5cnn6cccnc56)C4)ncnc3n2C)c1C [Compound 2-41, 8-(1-ethyl-5-methyl-1H-pyrazol-4-yl)-9-methyl-6-{[(3S)-1-(pyrazolo[1,5-a]pyrimidin-3-ylcarbonyl)pyrrolidin-3-yl]oxy}-9H-purine] | 6
23 | CCn1ncc(-c2nc3c(O[C@H]4CCN(C(=O)c5nnc6n5CCCC6)C4)ncnc3n2C)c1C [Compound 2-42, 8-(1-ethyl-5-methyl-1H-pyrazol-4-yl)-9-methyl-6-{[(3S)-1-(5,6,7,8-tetrahydro[1,2,4]triazolo[4,3-a]pyridin-3-ylcarbonyl)pyrrolidin-3-yl]oxy}-9H-purine] | 3
24 | CCn1ncc(-c2nc3c(O[C@H]4CCN(C(=O)c5c[nH]nc5C(F)(F)F)C4)ncnc3n2C)c1C [Compound 2-43, 8-(1-ethyl-5-methyl-1H-pyrazol-4-yl)-9-methyl-6-{[(3S)-1-{[3-(trifluoromethyl)-1H-pyrazol-4-yl]carbonyl}pyrrolidin-3-yl]oxy}-9H-purine] | 10
25 | CCn1ncc(-c2nc3c(O[C@H]4CCN(C(=O)c5cn(C)nn5)C4)ncnc3n2C)c1C [Compound 2-44, 8-(1-ethyl-5-methyl-1H-pyrazol-4-yl)-9-methyl-6-({(3S)-1-[(1-methyl-1H-1,2,3-triazol-4-yl)carbonyl]pyrrolidin-3-yl}oxy)-9H-purine] | 9
26 | CCn1ncc(-c2nc3c(O[C@H]4CCN(C(=O)c5nnsc5C)C4)ncnc3n2C)c1C [Compound 2-46, 8-(1-ethyl-5-methyl-1H-pyrazol-4-yl)-9-methyl-6-({(3S)-1-[(5-methyl-1,2,3-thiadiazol-4-yl)carbonyl]pyrrolidin-3-yl}oxy)-9H-purine] | >10
27 | CCn1ncc(-c2nc3c(O[C@H]4CCN(C(=O)c5nc6cc(Cl)ccn6n5)C4)ncnc3n2C)c1C [Compound 2-47, 6-({(3S)-1-[(7-chloro[1,2,4]triazolo[1,5-a]pyridin-2-yl)carbonyl]pyrrolidin-3-yl}oxy)-8-(1-ethyl-5-methyl-1H-pyrazol-4-yl)-9-methyl-9H-purine] | 1
28 | CCn1ncc(-c2nc3c(O[C@H]4CCN(C(=O)c5[nH]ncc5C)C4)ncnc3n2C)c1C [Compound 2-48, 8-(1-ethyl-5-methyl-1H-pyrazol-4-yl)-9-methyl-6-({(3S)-1-[(4-methyl-1H-pyrazol-5-yl)carbonyl]pyrrolidin-3-yl}oxy)-9H-purine] | >10
29 | CCn1ncc(-c2nc3c(O[C@H]4CCN(C(=O)c5noc(C(C)(C)O)n5)C4)ncnc3n2C)c1C [Compound 2-50, 2-(3-{[(3S)-3-{[8-(1-ethyl-5-methyl-1H-pyrazol-4-yl)-9-methyl-9H-purin-6-yl]oxy}pyrrolidin-1-yl]carbonyl}-1,2,4-oxadiazol-5-yl)propan-2-ol] | 8
30 | CCn1ncc(-c2nc3c(O[C@H]4CCN(C(=O)c5conc5C)C4)ncnc3n2C)c1C [Compound 2-51, 8-(1-ethyl-5-methyl-1H-pyrazol-4-yl)-9-methyl-6-({(3S)-1-[(3-methylisoxazol-4-yl)carbonyl]pyrrolidin-3-yl}oxy)-9H-purine] | >10
